Data from ChEMBL document CHEMBL3992560, “Synthesis and pharmacological evaluation of pyrazolo[1,5-a]pyrimidin-7(4H)-one derivatives as potential GABAA-R ligands” (Bioorg Med Chem, 2017).
The source made the active and inactive calls. The calls are words filed in the database; no cut-off is given here.

Tests used:
Bos taurus = species on record: Bos taurus; assay: Displacement of [3H]Ro15-1788 from GABA-A receptor benzodiazepine site in bovine brain cerebral cortex membranes at 10 uM relative to control; conditions: Membrane
[1] = Displacement of [3H]Ro15-1788 from GABA-A receptor benzodiazepine site in bovine brain cerebral cortex membranes; set-up: species or system Bos taurus, Membrane
[2] = target: GABA A receptor alpha-2/beta-2/gamma-2 (Homo sapiens) (UniProt P47870+P18507+P47869); assay: Displacement of [3H]Ro15-1788 from GABA-Aalpha2beta2gamma2 receptor (unknown origin) expressed in cell membranes after 1 hr relative to control
[3] = target: GABA-A receptor; alpha-5/beta-3/gamma-2 (Homo sapiens) (UniProt P18507+P28472+P31644); assay: Displacement of [3H]Ro15-1788 from GABA-Aalpha5beta3gamma2 receptor (unknown origin) expressed in cell membranes after 1 hr relative to control
Mus musculus [4] = assay: Anxiolytic-like activity in CD-1 mouse assessed as number of transfer from one compartment to other at 3 mg/kg, po administered 30 mins prior to test by light/dark exploration test; type: functional
Mus musculus [5] = assay: Anxiolytic-like activity in CD-1 mouse assessed as number of transfer from one compartment to other at 1 mg/kg, po administered 30 mins prior to test by light/dark exploration test; type: functional
Mus musculus [6] = assay: Anxiolytic-like activity in CD-1 mouse assessed as time spent in light area at 3 mg/kg, po administered 30 mins prior to test by light/dark exploration test relative to control; type: functional
Rattus norvegicus [7] = assay: Anxiolytic-like activity in Sprague-Dawley rat assessed as total number of arm entries at 10 mg/kg, po administered 30 mins prior to test by elevated […] maze test; type: functional
Mus musculus [8] = assay: Anxiolytic-like activity in CD-1 mouse assessed as time spent in light area at 10 mg/kg, po administered 30 mins prior to test by light/dark exploration test relative to control; type: functional
Mus musculus [9] = assay: Anxiolytic-like activity in CD-1 mouse assessed as number of transfer from one compartment to other at 30 mg/kg, po administered 30 mins prior to test followed by flumazenil injection by light/dark exploration test; type: functional
Rattus norvegicus [10] = assay: Anxiolytic-like activity in Sprague-Dawley rat assessed as time spent in open arms at 10 mg/kg, po administered 30 mins prior to test by elevated […] maze test relative to control; type: functional
[11] = target: T1, GABA-A receptor; alpha-1/beta-2/gamma-2 (Homo sapiens, UniProt P14867+P18507+P47870); assay: Displacement of [3H]Ro15-1788 from GABA-Aalpha1beta2gamma2 receptor (unknown origin) expressed in cell membranes after 1 hr
T1 sequence (P14867 whole entry): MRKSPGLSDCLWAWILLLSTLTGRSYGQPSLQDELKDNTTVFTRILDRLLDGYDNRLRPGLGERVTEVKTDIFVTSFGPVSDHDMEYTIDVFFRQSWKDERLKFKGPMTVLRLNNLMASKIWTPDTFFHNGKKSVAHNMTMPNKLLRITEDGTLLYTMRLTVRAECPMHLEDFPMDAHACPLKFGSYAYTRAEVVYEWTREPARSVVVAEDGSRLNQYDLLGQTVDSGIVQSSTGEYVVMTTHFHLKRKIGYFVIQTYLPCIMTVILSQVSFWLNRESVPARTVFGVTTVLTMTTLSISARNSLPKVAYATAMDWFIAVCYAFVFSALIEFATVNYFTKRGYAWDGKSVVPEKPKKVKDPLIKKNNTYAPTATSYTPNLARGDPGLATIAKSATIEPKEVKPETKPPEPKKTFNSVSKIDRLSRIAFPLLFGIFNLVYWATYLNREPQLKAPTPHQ
T1 sequence (P47870 whole entry): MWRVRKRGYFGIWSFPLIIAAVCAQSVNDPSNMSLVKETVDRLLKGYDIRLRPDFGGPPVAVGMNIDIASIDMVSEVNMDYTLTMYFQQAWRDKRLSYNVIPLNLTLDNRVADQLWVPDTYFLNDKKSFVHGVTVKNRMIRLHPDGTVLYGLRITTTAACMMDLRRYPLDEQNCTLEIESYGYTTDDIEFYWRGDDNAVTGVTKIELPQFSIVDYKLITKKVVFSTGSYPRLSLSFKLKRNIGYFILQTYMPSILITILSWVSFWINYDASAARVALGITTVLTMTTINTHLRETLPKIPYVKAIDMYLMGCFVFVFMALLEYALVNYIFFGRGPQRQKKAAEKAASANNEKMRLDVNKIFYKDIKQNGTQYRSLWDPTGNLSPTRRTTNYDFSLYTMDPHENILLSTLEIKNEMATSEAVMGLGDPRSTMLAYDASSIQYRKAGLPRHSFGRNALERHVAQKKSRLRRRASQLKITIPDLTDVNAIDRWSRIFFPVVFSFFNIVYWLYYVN
T1 sequence (P18507 whole entry): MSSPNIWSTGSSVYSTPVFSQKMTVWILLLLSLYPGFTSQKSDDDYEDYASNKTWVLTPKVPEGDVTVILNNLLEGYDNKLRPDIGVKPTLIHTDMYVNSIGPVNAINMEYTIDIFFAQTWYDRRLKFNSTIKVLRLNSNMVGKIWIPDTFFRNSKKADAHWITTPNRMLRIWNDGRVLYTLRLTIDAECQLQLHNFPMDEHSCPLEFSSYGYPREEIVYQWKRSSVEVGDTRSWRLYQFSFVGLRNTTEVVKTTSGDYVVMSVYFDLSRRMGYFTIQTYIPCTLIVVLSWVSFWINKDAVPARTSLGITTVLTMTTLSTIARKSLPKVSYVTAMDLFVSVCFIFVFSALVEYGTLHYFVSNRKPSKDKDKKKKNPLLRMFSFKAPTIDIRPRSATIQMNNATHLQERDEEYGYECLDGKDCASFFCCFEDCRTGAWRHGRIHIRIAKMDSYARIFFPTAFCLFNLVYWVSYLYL

Mus musculus [12] = assay: Anxiolytic-like activity in CD-1 mouse assessed as time spent in light area at 10 mg/kg, po administered 30 mins prior to test followed by flumazenil injection by light/dark exploration test relative to control; type: functional
Mus musculus [13] = assay: Anxiolytic-like activity in CD-1 mouse assessed as number of transfer from one compartment to other at 10 mg/kg, po administered 30 mins prior to test by light/dark exploration test; type: functional
Mus musculus [14] = assay: Anxiolytic-like activity in CD-1 mouse assessed as number of transfer from one compartment to other at 30 mg/kg, po administered 30 mins prior to test by light/dark exploration test; type: functional
Mus musculus [15] = assay: Anxiolytic-like activity in CD-1 mouse assessed as time spent in light area at 30 mg/kg, po administered 30 mins prior to test by light/dark exploration test relative to control; type: functional
Mus musculus [16] = assay: Anxiolytic-like activity in CD-1 mouse assessed as time spent in light area at 1 mg/kg, po administered 30 mins prior to test by light/dark exploration test relative to control; type: functional
Mus musculus [17] = assay: Anxiolytic-like activity in CD-1 mouse assessed as increase in time spent in light area at 1 to 30 mg/kg, po administered 30 mins prior to test by light/dark exploration test; type: functional, organism-based
Rattus norvegicus [18] = assay: Anxiolytic-like activity in Sprague-Dawley rat assessed as total number of arm entries at 1 mg/kg, po administered 30 mins prior to test by elevated […] maze test; type: functional
Rattus norvegicus [19] = assay: Anxiolytic-like activity in Sprague-Dawley rat assessed as time spent in open arms at 1 mg/kg, po administered 30 mins prior to test by elevated […] maze test relative to control; type: functional

Compound | inhibition (Bos taurus) | Ki ([1]; read-out: Ki) | also measured
O=c1c(Cc2ccccc2)c[nH]c2c(-c3ccc4ccccc4c3)cnn12 | > 80% | 0.0733 µM | –
O=c1c(Cc2ccccc2)c[nH]c2c(-c3cccnc3)cnn12 | > 80% | 0.0733 µM | –
O=c1c(Cc2ccccc2)c[nH]c2c(-c3cccc(C(F)(F)F)c3)cnn12 | > 80% | 0.0223 µM | –
O=c1c(-c2ccccc2)c[nH]c2c(-c3cccc4ccccc34)cnn12 | > 80% | 0.375 µM | –
COc1cccc(-c2cnn3c(=O)c(-c4ccccc4)c[nH]c23)c1 | > 80% | 0.192 µM | –
O=c1c(-c2ccccc2)c[nH]c2c(-c3ccc4ccccc4c3)cnn12 | < 80% | – | Ki [1]: Not Active
O=c1c(-c2ccccc2)c[nH]c2c(-c3cccs3)cnn12 | > 80% | 0.215 µM | –
O=c1c(Cc2ccccc2)c[nH]c2c(-c3ccccc3)cnn12 | > 80% | 0.132 µM | –
O=c1c(-c2ccccc2)c[nH]c2c(-c3cccc(Br)c3)cnn12 | > 80% | 0.0393 µM | –
O=c1c(Cc2ccccc2)c[nH]c2c(-c3ccsc3)cnn12 | < 80% | – | Ki [1]: Not Active
COc1cccc(-c2cnn3c(=O)c(Cc4ccccc4)c[nH]c23)c1 | > 80% | 0.0496 µM | –
O=c1c(-c2ccccc2)c[nH]c2c(-c3cccnc3)cnn12 | > 80% | 0.0584 µM | –
O=c1c(-c2ccccc2)c[nH]c2c(-c3ccsc3)cnn12 | > 80% | 0.0722 µM | –
O=c1c(Cc2ccccc2)c[nH]c2c(-c3ccccn3)cnn12 | > 80% | 0.0298 µM | inhibition [2]: 14%; inhibition [3]: 31%; Activity (Mus musculus [4]): 21.3; Activity (Mus musculus [5]): 15; Activity (Mus musculus [6]): 145.2%; Activity (Rattus norvegicus [7]): 10.5; Activity (Mus musculus [8]): 165.4%; Activity (Mus musculus [9]): 12.8; Activity (Rattus norvegicus [10]): 29.6%; Ki [11]: 0.183 µM; Activity (Mus musculus [12]): 120.08%; Activity (Mus musculus [13]): 23.9; Activity (Mus musculus [14]): 28.9; Activity (Mus musculus [15]): 164.4%; Activity (Mus musculus [16]): 113.9%
O=c1c(-c2ccccc2)c[nH]c2c(-c3cccc(C(F)(F)F)c3)cnn12 | > 80% | 0.118 µM | –
O=c1c(Cc2ccccc2)c[nH]c2c(-c3ccc(F)cc3)cnn12 | > 80% | 0.0346 µM | –
O=c1c(Cc2ccccc2)c[nH]c2c(-c3cccc4ccccc34)cnn12 | > 80% | 0.112 µM | –
O=c1c(Cc2ccccc2)c[nH]c2c(Cc3ccccc3)cnn12 | < 80% | – | Ki [1]: Not Active
O=c1c(Cc2ccccc2)c[nH]c2c(-c3cccs3)cnn12 | > 80% | 0.502 µM | –
O=c1c(Cc2ccccc2)c[nH]c2c(-c3cccc(Br)c3)cnn12 | > 80% | 0.0299 µM | –
O=c1c(-c2ccccc2)c[nH]c2c(-c3ccccc3)cnn12 | > 80% | 0.368 µM | –
O=c1c(-c2ccccc2)c[nH]c2c(-c3ccccn3)cnn12 | > 80% | 0.211 µM | Activity (Mus musculus [17]): inactive
O=c1c(-c2ccccc2)c[nH]c2c(Cc3ccccc3)cnn12 | < 80% | – | Ki [1]: Not Active
CN1C(=O)CN=C(c2ccccc2)c2cc(Cl)ccc21 [DIAZEPAM] | – | 0.01 µM | Activity (Rattus norvegicus [18]): 10.5; Activity (Mus musculus [5]): 8.3; Activity (Rattus norvegicus [19]): 34.9%; Activity (Mus musculus [16]): 171.6%
Cc1cccc(-c2cnn3c(=O)c(-c4ccccc4)c[nH]c23)c1 | > 80% | 0.087 µM | –
O=c1c(-c2ccccc2)c[nH]c2c(-c3ccc(F)cc3)cnn12 | > 80% | 0.132 µM | –
Cc1cccc(-c2cnn3c(=O)c(Cc4ccccc4)c[nH]c23)c1 | > 80% | 0.018 µM | –
